The values below come from patent publication US5013759A, “Compounds and compositions having anti-inflammatory and analgesic activity” (The Procter & Gamble Company, priority 1990, dated 1991).

Test [1] deals with Croton Oil Inflamed Mouse Ear. Briefly: Croton Oil Inflamed Mouse Ear Test (Topical treatment). To be noted: 1% solution in ethanol, two doses, 4 h after croton oil, All values significant p 0.05. In kind it is in vivo, Adult male Cox ICR mice. As to the method: Substituted phenylacetic acid amide compounds were tested for anti-inflammatory activity using the Croton Oil Inflamed Mouse Ear Test (Topical treatment).
Adult male Cox ICR mice, 25-35 g, were treated at about 3:00 PM on the left ear with 25 l of a 1% solution of the test compound in ethanol. They were placed in individual stainless steel cages where food and water was available ad libitum. The following morning around 8:00 AM the mice were dosed a second time on the same ear. One hour after the second dose, 25 l of 2% croton oil in acetone was applied to the left ear of the control and test groups.
Four hours after the croton oil treatment, the mice were sacrificed by cervical dislocation and both ears removed. A 5 mm punch biopsy was taken from each ear and weighed to the nearest 0.1 mg on a Cahn electrobalance.
The results were expressed as percent inhibition of the swelling response compared to the control group according to the formula:
(C-Ta..n)/C×100=Percent Inhibition
where C is the average difference between the left and right ear weights of the control group, and
Ta..n is the difference between left and right ear weights of animal (a..n) in a treated group.
Statistical tests for significance between groups were made using a one way analysis of variance of the ear weight differences.

Test [2] in a line: Oral administration of soft gelatin capsules to a human (Example IV). To be noted: two capsules each containing 225 mg of the composition, 60 kg human. Format: in vivo. The procedure:
(§1) A composition for oral administration is prepared by combining the following ingredients:
N-oleyl-4-hydroxy-3-methoxyphenylacetamide, 1.10 kg

A short description of test [3]: Oral administration of syrup to an adult human (Example V). In kind it is in vivo. To be noted: one teaspoon of syrup, 70 kg adult human. As to the method:
as §1
N-oleyl-4-hydroxy-3-methoxyphenylacetamide, 250 g
Propylene glycol, 1800 ml
Artificial Cherry flavor, 10 ml
The above ingredients are combined to produce a syrup and are packaged under sterile conditions in 6 oz. bottles.

Test [4] concerns Carrageenan Rat Paw Edema. Kind of test: Carrageenan Rat Paw Edema Test (Oil Vehicle). The conditions noted are these: 4 h after carrageenan, All values significant p 0.05. Format: in vivo, Male Sprague Dawley rats. As to the method:
Substituted phenylacetic acid amide compounds were tested for anti-inflammatory activity using the Carrageenan Rat Paw Edema Test (Oil Vehicle).
Male Sprague Dawley rats (Charles River Laboratories) were weighed and food fasted overnight. The animals were divided into four to six groups of six animals each according to body weights, average about 145 g, so that each group had about the same average weight (within 10 g).
The following morning five ml of water was dosed orally via stomach tube to each animal to facilitate paw swelling. The animals were dosed with the test compound and then placed in individual cages. The drug was dissolved in ethyl oleate: benzyl alcohol, 98:2, and delivered via stomach tube in 1 ml volume.
Paw volumes (0 time) were determined on both hind paws with a mercury displacement device equipped with a transducer and digitizer. […] Four hours after the carrageenan injection, the paw volumes are again determined.
The results are expressed as percent inhibition of the mean paw volume of the test group relative to the control group according to the formula: […]
Ta..n is the difference in paw swelling in the treated animals (a..n). Statistical differences are determined by one way analysis of variance.
(In general: Carrageenan injected into the paw causes an acute inflammation.)

Test [5] in a line: Topical application to forearm of a human (Example VI). In kind it is in vivo. To be noted: 0.4 ml to 80 cm^2 of forearm, 60 kg human. As to the method:
A composition for topical administration is prepared by combining the following ingredients:
N-oleyl-4-hydroxy-3-methoxyphenylacetamide, 4 g
The phenylacetamide is melted with slight warming and combined with the other ingredients.

For `C=CCCCCCCCCNC(=O)Cc1ccc(O)c(OC)c1` [N-9-decenyl-4-hydroxy-3-methoxyphenylacetamide], the “Percent Inhibition (of the swelling response compared to control)” value in test [1] is reported as 98.9 +/- 11.9%.

With `CCCCCCCC(C)NC(=O)Cc1ccc(O)c(OC)c1` (stereo not drawn) [N-(2-nonanyl)-4-hydroxy-3-methoxyphenylacetamide], in test [1], the “Percent Inhibition (of the swelling response compared to control)” value is recorded as 55.6 +/- 26.5%.

On to `CCCCCCC(C)NC(=O)Cc1ccc(O)c(OC)c1` (stereo not drawn) [N-(2-octanyl-)-4-hydroxy-3-methoxyphenylacetamide], for which the “Percent Inhibition (of the swelling response compared to control)” value in test [1] is 48.1 +/- 15.8%.

With `C=C(CCCCCCCCC)CCCCCCCCNC(=O)Cc1ccc(O)c(OC)c1` [N-(9-methylene-1-octadecanyl-)-4-hydroxy-3-methoxyphenyl acetamide], in test [2], the Analgesia entry is given as “increased analgesic effect” and the Reduction of inflammation entry is “substantially similar reduction of inflammation”.

For the compound `COc1cc(CC(=O)NC2CCCCCCC2)ccc1O` [N-cyclooctyl-4-hydroxy-3-methoxyphenylacetamide], in test [3], the Analgesia entry is “weaker analgesic effect” and the Reduction of inflammation result is recorded as “substantially similar reduction of inflammation”.

`CCCCCCCCCCNC(=O)Cc1ccc(O)c(OC)c1` [N-decyl-4-hydroxy-3-methoxyphenylacetamide]: the “Percent Inhibition (of the swelling response compared to control)” value in test [1] is recorded as 58.1 +/- 29.4%.

Turning to `CCCCCCCCCCCCNC(=O)Cc1ccc(O)c(OC)c1` [N-dodecyl-4-hydroxy-3-methoxyphenylacetamide], the “Percent Inhibition (of the swelling response compared to control)” value in test [1] was 55.3 +/- 20.7%.

`CCCCCCCNC(=O)Cc1ccc(O)c(OC)c1` [N-heptyl-4-hydroxy-3-methoxyphenylacetamide]: the “Percent Inhibition (of the swelling response compared to control)” value in test [1] was 69.4 +/- 33.9%.

With `CCCCCCCCCNC(=O)Cc1ccc(O)c(OC)c1` [N-nonyl-4-hydroxy-3-methoxyphenylacetamide], the “Percent Inhibition (of the swelling response compared to control)” value in test [1] was 80.7 +/- 23.0%.

`CCCCCCCCNC(=O)C(C)c1ccc(O)c(OC)c1` (stereo not drawn) [N-octyl-4-hydroxy-3-methoxyphenyl-2-methyl-acetamide]: the “Percent Inhibition (of the swelling response compared to control)” value in test [1] is on record as 88.9 +/- 24.1%.

As for `CCCCCCCCNC(=O)Cc1ccc(O)c(OC)c1` [N-octyl-4-hydroxy-3-methoxyphenylacetamide], the “Percent Inhibition (of the swelling response compared to control)” value in test [1] is on record as 89.1 +/- 15.7%.

For `CCCCCCCC/C=C\CCCCCCCCNC(=O)Cc1ccc(O)c(OC)c1` [N-oleyl-4-hydroxy-3-methoxyphenylacetamide], the “Percent Inhibition (of the swelling response compared to control)” value in test [1] is given as 83.5 +/- 11.9%. Further, the “Percent Inhibition (of mean paw volume relative to control)” value was 89.3 +/- 10.8% in test [4] (200 mg/kg oral in ethyl oleate: benzyl alcohol 98:2) and 95.6 +/- 11.2% in test [4] (400 mg/kg oral in ethyl oleate: benzyl alcohol 98:2).

On to `CCCCCCCCCCCCCCCCCCNC(=O)Cc1ccc(O)c(OC)c1` [N-stearyl-4-hydroxy-3-methoxyphenylacetamide], for which, in test [5], the Analgesia entry is reported as “weaker analgesic effect” and the Reduction of inflammation result is given as “substantially similar reduction of inflammation”.
